Test results taken from PubChem BioAssay (NCI).
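Briefly, cells in 96-well plates were exposed to five compound concentrations for 48 h, and endpoints were estimated by linear interpolation. At the TGI there is no net growth.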

Columns and labels:
Experiment in all cases: NCI-60 cell line screen, 48 h
SF-295 CNS = tested on: SF-295 CNS
HOP-62 NSCLC = tested on: HOP-62 NSCLC
SK-MEL-5 melanoma = tested on: SK-MEL-5 melanoma
M14 melanoma = tested on: M14 melanoma
U251 CNS = tested on: U251 CNS
NCI-H23 lung = tested on: NCI-H23 lung
HCC-2998 colon = tested on: HCC-2998 colon
HCT-15 colon = tested on: HCT-15 colon
RPMI-8226 leukemia = tested on: RPMI-8226 leukemia
DU-145 prostate = tested on: DU-145 prostate
MDA-N = tested on: MDA-N

CCC(CC)n1c(C)nc2c1C(=O)c1ccccc1C2=O
TGI (SF-295 CNS): > 100 µM
TGI (HOP-62 NSCLC): > 100 µM
TGI (SK-MEL-5 melanoma): 37.1 µM
TGI (M14 melanoma): > 100 µM
TGI (U251 CNS): > 100 µM
TGI (NCI-H23 lung): 54 µM
TGI (HCC-2998 colon): > 100 µM
TGI (HCT-15 colon): > 100 µM

COc1ccc(CC2NC(=O)/C=C/CC(C(C)C3OC3c3ccccc3)OC(=O)C(CC(C)C)OC(=O)C(C)CNC2=O)cc1Cl (configuration not stated)
TGI (RPMI-8226 leukemia): > 0.1 µM
TGI (HOP-62 NSCLC): > 0.1 µM
TGI (SK-MEL-5 melanoma): 0.000657 µM
TGI (M14 melanoma): 0.00141 µM
TGI (U251 CNS): > 0.1 µM
TGI (NCI-H23 lung): > 0.1 µM
TGI (HCC-2998 colon): 0.00259 µM
TGI (HCT-15 colon): > 0.1 µM
TGI (DU-145 prostate): > 0.1 µM

c1cc2c(c(-c3c4ccccc4nc4ccccc34)c1)CC1(CC2)OCCO1
TGI (RPMI-8226 leukemia): > 100 µM
TGI (SF-295 CNS): > 100 µM
TGI (HOP-62 NSCLC): > 100 µM
TGI (SK-MEL-5 melanoma): > 100 µM
TGI (M14 melanoma): > 100 µM
TGI (U251 CNS): > 100 µM
TGI (MDA-N): > 100 µM
TGI (NCI-H23 lung): > 100 µM
TGI (HCC-2998 colon): > 100 µM
TGI (HCT-15 colon): > 100 µM

O=S1C2=C(Cc3ccccc3)C(Cc3ccccc3)=C1CCc1cccc(c1)CC2
TGI (SF-295 CNS): 27.1 µM
TGI (SK-MEL-5 melanoma): 30 µM
TGI (M14 melanoma): 29 µM
TGI (U251 CNS): 26.8 µM
TGI (MDA-N): 30.6 µM
TGI (NCI-H23 lung): 28.2 µM
TGI (HCC-2998 colon): 27.5 µM
TGI (HCT-15 colon): 30.5 µM
TGI (DU-145 prostate): 30.3 µM

NC(=O)N1N=C2c3ccccc3SC[C@H]2[C@@H]1c1ccccc1
TGI (RPMI-8226 leukemia): 87.5 µM
TGI (SF-295 CNS): 80.4 µM
TGI (HOP-62 NSCLC): 65.6 µM
TGI (SK-MEL-5 melanoma): 21.8 µM
TGI (U251 CNS): 50.4 µM
TGI (NCI-H23 lung): > 100 µM
TGI (HCC-2998 colon): > 100 µM
TGI (HCT-15 colon): > 100 µM

COc1ccc(C(C#N)NNc2nc(C)cc(=O)[nH]2)cc1OC (configuration not stated)
TGI (RPMI-8226 leukemia): > 100 µM
TGI (SF-295 CNS): > 100 µM
TGI (HOP-62 NSCLC): > 100 µM
TGI (SK-MEL-5 melanoma): > 100 µM
TGI (M14 melanoma): > 100 µM
TGI (U251 CNS): > 100 µM
TGI (NCI-H23 lung): > 100 µM
TGI (HCT-15 colon): > 100 µM

CC1(C)Oc2ccc3c(=O)cc(-c4ccc(F)cc4)oc3c2C1C(=O)O (configuration not stated)
TGI (SF-295 CNS): > 100 µM
TGI (HOP-62 NSCLC): > 100 µM
TGI (SK-MEL-5 melanoma): > 100 µM
TGI (M14 melanoma): > 100 µM
TGI (U251 CNS): > 100 µM
TGI (MDA-N): > 100 µM
TGI (NCI-H23 lung): > 100 µM
TGI (HCC-2998 colon): > 100 µM
TGI (DU-145 prostate): > 100 µM

Cc1cn(Cc2ccccc2CCl)c(=O)[nH]c1=O
TGI (SF-295 CNS): 30.4 µM
TGI (HOP-62 NSCLC): 35.3 µM
TGI (SK-MEL-5 melanoma): 20.7 µM
TGI (M14 melanoma): 28.2 µM
TGI (U251 CNS): 21.4 µM
TGI (NCI-H23 lung): 23.3 µM
TGI (HCC-2998 colon): 28.8 µM
TGI (HCT-15 colon): 31.7 µM
TGI (DU-145 prostate): 31.3 µM

COc1ccc(-c2cc(-c3cc(OC)c(OC)c(OC)c3)cc(-c3cc4ccccc4oc3=O)n2)cc1
TGI (SF-295 CNS): 19.4 µM
TGI (HOP-62 NSCLC): 5.8 µM
TGI (SK-MEL-5 melanoma): 18.6 µM
TGI (M14 melanoma): > 100 µM
TGI (U251 CNS): 12.5 µM
TGI (MDA-N): 68 µM
TGI (NCI-H23 lung): 29.8 µM
TGI (HCC-2998 colon): 80.5 µM
TGI (HCT-15 colon): > 100 µM
TGI (DU-145 prostate): 56.1 µM

COC(=O)C1C2C=CC(C2)N1[C@@H](C)c1ccccc1 (some centres not stated)
TGI (RPMI-8226 leukemia): > 100 µM
TGI (SF-295 CNS): > 100 µM
TGI (HOP-62 NSCLC): > 100 µM
TGI (SK-MEL-5 melanoma): > 100 µM
TGI (M14 melanoma): > 100 µM
TGI (U251 CNS): > 100 µM
TGI (NCI-H23 lung): > 100 µM
TGI (HCC-2998 colon): > 100 µM
TGI (HCT-15 colon): > 100 µM

COc1cccc(-c2cc(=O)c3c(C)ccnc3[nH]2)c1
TGI (RPMI-8226 leukemia): 11.8 µM
TGI (SF-295 CNS): > 100 µM
TGI (HOP-62 NSCLC): > 100 µM
TGI (SK-MEL-5 melanoma): 3.71 µM
TGI (M14 melanoma): > 100 µM
TGI (U251 CNS): > 100 µM
TGI (NCI-H23 lung): > 100 µM
TGI (HCC-2998 colon): 0.27 µM

O=C1CCCCc2cccc(O)c21
TGI (RPMI-8226 leukemia): > 100 µM
TGI (SF-295 CNS): > 100 µM
TGI (HOP-62 NSCLC): > 100 µM
TGI (SK-MEL-5 melanoma): > 100 µM
TGI (M14 melanoma): > 100 µM
TGI (U251 CNS): > 100 µM
TGI (NCI-H23 lung): > 100 µM
TGI (HCC-2998 colon): > 100 µM
TGI (HCT-15 colon): > 100 µM
TGI (DU-145 prostate): > 100 µM

CC(C)=CCC/C(C)=C/CC/C(C)=C/CC/C(C)=C/CC/C(C)=C\CC/C(C)=C/CC/C(C)=C/CC/C(C)=C/Cc1cc(O)ccc1O
TGI (SF-295 CNS): 3.76 µM
TGI (HOP-62 NSCLC): 29.5 µM
TGI (M14 melanoma): 1.25 µM
TGI (U251 CNS): 4.06 µM
TGI (NCI-H23 lung): 1.96 µM
TGI (HCC-2998 colon): > 48.8 µM
TGI (HCT-15 colon): > 33.4 µM
TGI (DU-145 prostate): > 72.9 µM

CCC(=O)O[C@H]1CC[C@H]2[C@@H]3CCC4=C/C(=N/NC(=O)c5cccc6c(=O)c7ccccc7[nH]c56)CC[C@]4(C)[C@H]3CC[C@]12C
TGI (RPMI-8226 leukemia): > 25 µM
TGI (SF-295 CNS): > 25 µM
TGI (HOP-62 NSCLC): > 25 µM
TGI (SK-MEL-5 melanoma): > 25 µM
TGI (M14 melanoma): > 25 µM
TGI (U251 CNS): > 25 µM
TGI (MDA-N): > 25 µM
TGI (NCI-H23 lung): > 25 µM
TGI (HCC-2998 colon): > 25 µM
TGI (HCT-15 colon): > 25 µM

Cc1cc2c(c(C=NCc3ccccc3)c1)OC1(C=C2)Oc2ccccc2C(=O)N1C (configuration not stated)
TGI (RPMI-8226 leukemia): 50.4 µM
TGI (SF-295 CNS): > 100 µM
TGI (HOP-62 NSCLC): > 100 µM
TGI (SK-MEL-5 melanoma): 50.3 µM
TGI (M14 melanoma): > 100 µM
TGI (U251 CNS): 80.3 µM
TGI (NCI-H23 lung): 69.6 µM
TGI (HCC-2998 colon): 57.4 µM
TGI (HCT-15 colon): 45.4 µM
TGI (DU-145 prostate): 70.4 µM

CN=S(=O)(c1ccccc1)c1ccccc1
TGI (RPMI-8226 leukemia): > 100 µM
TGI (SF-295 CNS): > 100 µM
TGI (HOP-62 NSCLC): > 100 µM
TGI (SK-MEL-5 melanoma): > 100 µM
TGI (M14 melanoma): > 100 µM
TGI (U251 CNS): > 100 µM
TGI (NCI-H23 lung): > 100 µM
TGI (HCC-2998 colon): > 100 µM
TGI (HCT-15 colon): > 100 µM

CC(C)C1CC(O)O[C@@H]([C@@H](C)[C@H]2CC(=O)[C@@H]3[C@@H]4[C@@H](O)[C@H](O)[C@H]5[C@@H](O)[C@H](O)CC[C@]5(C)[C@H]4CC[C@]23C)C1 (some centres not stated)
TGI (SF-295 CNS): > 100 µM
TGI (HOP-62 NSCLC): 61.4 µM
TGI (SK-MEL-5 melanoma): > 100 µM
TGI (M14 melanoma): > 100 µM
TGI (U251 CNS): > 100 µM
TGI (NCI-H23 lung): > 100 µM
TGI (HCC-2998 colon): > 100 µM
TGI (HCT-15 colon): > 100 µM
